From US11110105B2, “Compounds, composition and uses thereof for treating cancer” (INSTITUT GUSTAVE ROUSSY, priority 2017, dated 2021)
Entries after “also recorded” stand apart in the source; their conditions may differ.

Legend:
MCA205 WT tumor = assay: Tumor challenge, MCA205 WT in immunocompetent C57BL/6 mice; format: in vivo, mouse; conditions: 18 mg/kg intraperitoneally, days 5, 10 and 15 (FIG. 11D)
Procedure: (A) Experimental settings. Growth of (B) sarcoma MCA205 or (C) melanoma B16F10 cells that both stably express the globin-SL8-intron construct or (D) MCA205 Wild Type (WT) or (E) B16F10 WT cells that were subcutaneously inoculated on the flank of immunocompetent C57BL/6 mice injected intraperitoneally with 12 mg/kg or 18 mg/kg of isoginkgetin at days 5, 10 and 15 after inoculation. Tumor size was assessed every 3 to 4 days until reaching the established ethical endpoints. Each line represents the tumor size in area (mm^2) of 6 mice in each group. Size in area (mm^2) of (F) MCA205 globin-SL8-intron, (G) B16F10 globin-SL8-intron, (H) MCA205 WT or (I) B16F10 WT tumors subcutaneously inoculated on the flank of immunodeficient Nu/Nu Nude mice injected intraperitoneally with 18 mg/kg of isoginkgetin at days 5, 10 and 15 after inoculation. Data are presented at the day before the endpoints are reached.
Data are given as mean ±SEM. *P<0.05, **P<0.01, ***P<0.001 (unpaired student t test). […] Tumor size was assessed every 3 to 4 days until reaching the established ethical endpoints. […]
The SL8 peptide has been widely shown to be highly immunogenic in vivo. […] At days 5, 10 and 15 after tumor inoculation, the mice were injected intraperitoneally with a define dose of isoginkgetin, and the tumor growth was monitored (FIG. 9A). […]

[1] = tested on: H2-K^b molecules at the cell surface of MCA205 cells; assay: Flow cytometry of H2-K^b expression, MCA205; format: cell-based, mouse
Source text: Flow cytometry analyses of H2-K^b expression on MCA205 and B16F10 cells treated with (A) isoginkgetin. Flow cytometry analyses of transiently expressed H2-K^b expression on A375, A549 and MRC5 cells treated with (B) isoginkgetin.

[2] = tested on: B16F10 mouse melanoma cell line; assay: MTT assay on B16F10 cell line; format: cell-based; conditions: B16F10 WT cells, 15 μM or 35 μM
Procedure: (§1) RNA was extracted and qRT-PCR was performed with primers amplifying the unspliced (intron) and the spliced (exon) globin-SL8-intron RNA. Data are given as mean ±SEM of the ratio of 2^−ΔΔCt intron and 2^−ΔΔCt exon of at least three independent experiments. […] Data are express as mean ±SEM of the percentage of viable cells compared to the control condition of at least three independent experiments. *P<0.05, **P<0.01, ***P<0.001 (unpaired student t test).
(§2) MCA205 mouse sarcoma cell line is cultured at 37° C. under 5% CO2 in RPMI 1640 medium (Life Technologies) in the presence of 1% glutamine, 1% sodium pyruvate, 1% non-essential amino-acids, 1% penicillin/streptomycin and 10% FBS (Life Technologies) under standard conditions. B16F10 mouse melanoma cell line, MRC5 human fibroblast cell line and A375 human melanoma cell line are cultured at 37° C. under 5% CO2 in DMEM medium (Life Technologies) containing 1% glutamine, 1% penicillin/streptomycin and 10% FCS under standard conditions. A549 human lung carcinoma cell line is cultured at 37° C. under 5% CO2 in DMEM/F12+Glutamax I in the presence of 1% Hepes, 1% sodium pyruvate and 10% FBS under standard conditions. Stable MCA205-Globin-SL8-intron cell line are cultured under the same condition as MCA205 cell line with additional 2 mg/ml G418 (geneticin from Life Technologies) for selection. Stable B16F10-Globin-SL8-intron cell line are cultured under the same condition as B16F10 cell line with additional 2 mg/ml G418 (geneticin from Life Technologies) for selection. The SL8/Kb-specific (B3Z) T-cell reporter hybridoma are cultured at 37° C. under 5% CO2 in RPMI 1640 medium (Life Technologies) in the presence of 1% glutamine, 0.1% β-galactosidase, 1% penicillin/streptomycin and 10% FCS under standard conditions.
(§3) MTT assay on MCA205 and B16F10 cell lines treated with 6.25 μM, 15 μM or 25 μM of isoginkgetin. Dare are given as the mean of the percentage of cell viability ±SEM from at least three independent experiments.

[3] = tested on: splicing of the Globin-SL8-intron gene product in MCA205 cells; assay: qRT-PCR of unspliced/spliced globin-SL8-intron RNA, MCA205; format: cell-based, mouse; conditions: 15 μM isoginkgetin, 35 μM IP2 or 35 μM M2P2, 48 hours
Procedure: as §1
In addition, it has been shown that cancer cells can acquire deficiencies in the splicing machinery that benefit their growth, for example by preventing the expression of tumor suppressor genes.

[4] = MTT assay on B16F10 cell line; format: cell-based, mouse; conditions: mouse, B16F10 melanoma cells, MTT, read-out: % cell viability (±SEM)
Procedure: as §1, §2, §3

SMILES | tumor growth (MCA205 WT tumor) | expression of the H2-K^b molecules at the cell surface [1] | toxicity (MTT, percentage of viable cells compared to control) [2] | splicing of Globin-SL8-intron RNA (ratio unspliced/spliced, qRT-PCR) [3] | viability at 6.25 µM ([4]; B16F10, 6.25 μM) [%] | viability at 15 µM ([4]; B16F10, 15 μM) [%] | viability at 25 µM ([4]; B16F10, 25 μM) [%]
COc1ccc(-c2cc(=O)c3c(OC)cc(OP(=O)([O-])[O-])c(-c4cc(-c5cc(=O)c6c(OC)cc(OP(=O)([O-])[O-])cc6o5)ccc4OC)c3o2)cc1.[Na+].[Na+].[Na+].[Na+] [IM2P2] | did not impact tumor growth | is not affected | no toxicity | has a strong impact on splicing; also recorded: strongly inhibits the splicing | – | – | –
COc1ccc(-c2cc(=O)c3c(O)cc(O)c(-c4cc(-c5cc(=O)c6c(O)cc(O)cc6o5)ccc4OC)c3o2)cc1 [Isoginkgetin, isoginkgetin] | – | – | – | – | 86.5 | 58.6 | 51.2
